Entries after “also recorded” stand apart in the source; their conditions may differ.
What was measured:
Format in all cases: physicochemical
[1] = Liposomal drug loading (encapsulation) at 50° C., Sephadex G-50 spin column, UV assay; details: for liposomal encapsulation (result in words): 50° C. (FIG. 2); for increase of irinotecan/lipid molar ratio: TEA containing liposomes (FIG. 10); for irinotecan encapsulation efficiency: 50° C.
Procedure: The lipids were labeled with trace amounts of ^3H-cholesteryl hexadecyl ether, a non-exchangeable, non-metabolizeable lipid marker to allow liposome quantitation by scintillation counting. The solvent was evaporated under a stream of nitrogen and dried under vacuum for at least 4 hours. […] The mean size distribution of the resulting large unilamellar vesicles (80-120 nm) was determined using a Nicomp submicron particle sizer model 370 (Nicomp, Santa Barbara, Calif.). For irinotecan loading, the solutions of irinotecan were made by dissolving the drug either in water at 50° C. or in sucrose phosphate buffer (300 mM sucrose, 40 mM phosphate) at room temperature. When necessary, the pH of the solution was adjusted to the desired value using NaOH. The final concentration of irinotecan was 15 mM. […] The precipitate was isolated by centrifugation (12000 rpm, 15 min) and was solubilized with 2 mM EDTA in water. Similar preparations were employed for daunorubicin. For liposomal loading, the drug solution and the liposomes were incubated separately at 50° C. for approximately five minutes to equilibrate the temperature. […] Aliquots of 75 μl were applied to a Sephadex G-50 spin column. The columns were prepared by adding glass wool to a 1 ml syringe and Sephadex G-50 beads hydrated in sucrose phosphate buffer (300 mM sucrose, 40 mM phosphate, pH 7.0). The columns were packed by spinning at 290×g for 1 minute. Following addition of the sample to the column, the liposome fraction was collected in the void volume by centrifuging at 515×g for 1 minute. Aliquots of the spin column eluant and the pre-column solution were taken and analyzed by liquid scintillation counting to determine the lipid concentration at each time point. The irinotecan concentration in each liposomal fraction was determined using a UV-based assay. […] The samples were cooled to ambient temperature. The absorbance at 370 nm was measured and compared to a standard curve. The concentration of TEA was determined by HPLC.

[2] = Irinotecan loading into diethanolamine buffered liposomes at 50° C.; details: 100 mM copper gluconate/140 mM diethanolamine pH 7.0 inside, sucrose/phosphate/EDTA buffer outside, target drug to lipid ratio 0.1 (FIG. 13)
Procedure: DSPC, cholesterol and DSPG were weighed out into capped scintillation vials. DSPC was dissolved in chloroform at 60 mg/ml, cholesterol was dissolved in chloroform at 25 mg/ml, and DSPG was dissolved in chloroform:methanol:water (50/10/1) at 30 mg/ml. The lipids were then combined in the appropriate proportions. […] A stream of N2 gas, while heating the mixture, was used to remove solvent. The resulting lipid films were left under vacuum for a few minutes, then redissolved in chloroform. The drying process was then repeated, and the lipid films were allowed to dry on a vacuum pump for 4+hours. […] MLVs were extruded at 70° C. through two 100 nm filters for a total of eight passes without difficulty. The liposomes were then allowed to cool down to room temperature. Samples were buffer exchanged into 300 mM sucrose/20 mM phosphate/10 mM EDTA, pH 7.0 by tangential flow. […] Clinical material of Irinotecan was used for a Irinotecan stock. Drug and liposome samples were pre-heated separately at 50° C. for 5 minutes, then combined at t=0. […] Samples of the spun column eluant and the pre-column solution were counted by liquid scintillation counting to determine the lipid concentration at each time point. Irinotecan concentrations were determined using a UV assay. […] Irinotecan is quantitated by absorbance at 370 nm against a standard curve.

[3] = Lactone/carboxylate form of irinotecan in solution (FTIR, HPLC)
Source text: FTIR measurements were made at room temperature in transmission mode using a Nicolet Nexus 870 spectrometer (Nicolet Instrument, Madison, Wis., USA) equipped with a liquid nitrogen-cooled mercury cadmium telluride detector. […] Inc. Buena, N.J.). The sample was dried with a stream of nitrogen and left overnight in a desiccator before recording the spectra. For each spectrum, 250 scans were co-added at a 4 cm^−1 resolution, using a Happ-Genzel apodization. Data analysis was done using the Grams AI software (Galactic Industries, Salem, N.H., USA). The second derivative of the spectra was performed to determine the frequency of the components of unresolved bands. Vibrational spectroscopy was used to further investigate the potential interaction between irinotecan and copper in free solution. […] Since irinotecan has several possible binding sites, tentative assignment of the bands of the spectra to its functional groups was performed in order to identify which group is involved in an interaction with copper gluconate/TEA. The C═O stretching absorption bands appear in the region of 1870-1540 cm^−1. The position of the carbonyl bands is affected by several factors including intermolecular and intramolecular hydrogen bonding. […] This conversion to the carboxylate form was confirmed by HPLC analysis. […]

| liposomal encapsulation (result in words) [2] | form of irinotecan in solution ([3]; pH 7.0 (data not shown)) | form of irinotecan in solution ([3]; pH 8.7, confirmed by HPLC) | liposomal loading (result in words) ([1]; TEA buffered internal solution pH 7.0, external phosphate buffer pH 7.0, 50° C. (FIG. 1)) | increase of irinotecan/lipid molar ratio ([1]; after 2 min at 50° C.) | increase of irinotecan/lipid molar ratio ([1]; after 60 min at 50° C.) | irinotecan encapsulation efficiency ([1]; copper gluconate/TEA containing liposomes (100 mM copper gluconate/180 mM TEA, pH 7.0)) | irinotecan concentration inside the liposomes upon encapsulation ([1]; intra-liposomal) [mM] | irinotecan encapsulation efficiency ([1]; liposomes containing 10 mM sodium gluconate/180 mM TEA, pH 7.0) [%] | irinotecan encapsulation efficiency ([1]; liposomes containing TEA/phosphate buffer (150 mM TEA, 95 mM phosphate, pH 7.0), 0.2:1 drug to lipid (mol:mol)) | drug loading (result in words) ([1]; liposomes containing copper gluconate adjusted to pH 7.0 with NaOH (no TEA)) | drug encapsulation (result in words) ([1]; liposomes containing sucrose phosphate buffer (no TEA)) | reduction of the amount of drug loading ([1]; liposomes with 100 mM copper gluconate, TEA decreased to 90 mM, pH 7.0 (FIG. 11)) [%] | irinotecan encapsulation ([1]; liposomes with 100 mM copper gluconate, TEA increased to 270 mM, pH 7.0 (FIG. 11)) | Compound | liposomal encapsulation (result in words) ([1]; triethanolamine hydrochloride internal solution, pH 7.0) | liposomal encapsulation (result in words) ([1]; triethanolamine/sodium gluconate/HCl internal solution, pH 7.0) |
| --- | --- | --- | --- | --- | --- | --- | --- | --- | --- | --- | --- | --- | --- | --- | --- | --- |
|  |  |  |  |  |  |  |  |  |  |  |  |  |  | COc1cccc2c1C(=O)c1c(O)c3c(c(O)c1C2=O)C[C@@](O)(C(C)=O)C[C@@H]3O[C@H]1C[C@H](N)[C@H](O)[C@H](C)O1 [daunorubicin] | successfully encapsulated | successfully encapsulated |
| successfully encapsulated | predominantly in its lactone form | primarily in the carboxylate form | successfully loaded | 0.08 μmol irinotecan/μmol lipid | 0.13 μmol irinotecan/μmol lipid | approximately 70% | > 50 | 70 | approximately 70% | negligible; also recorded: no loading | no drug encapsulation | 50 | approximately 90% | CCc1c2c(nc3ccc(OC(=O)N4CCC(N5CCCCC5)CC4)cc13)-c1cc3c(c(=O)n1C2)COC(=O)[C@]3(O)CC [irinotecan] |  |  |

Reference: patent publication US20090148506A1, “LIPOSOMAL FORMULATIONS COMPRISING SECONDARY AND TERTIARY AMINES AND METHODS FOR PREPARING THEREOF” (priority 2005, published 2009)
